Patent US20180163056A1, “HYDROPHILIC CURABLE COMPOSITIONS” (MITSUI CHEMICALS, INC., priority 2013, published 2018)

Test: Measurement of solubility with respect to cyclohexane:toluene=5:1 (by weight)
Format: physicochemical
Settings: 25° C., stirred 1 hour, 0.45 μm filter
Description: 1.0 g of hydrophilic compound SPA-K, namely, potassium 3-acryloyloxypropylsulfonate (or potassium 3-sulfopropylacrylate salt) as a constituent for the concentration-gradient films according to the invention was added to 10.0 g of a mixture solution including 8.3 g of cyclohexane and 1.7 g of toluene. The mixture was stirred at 25° C. for 1 hour and was filtered through a 0.45 μm membrane filter.
The filtrate was placed onto an evaporation dish, heated at 150° C. for 2 hours, and cooled to room temperature. The weight of the residue was measured.
Lastly, the solubility with respect to cyclohexane:toluene=5:1 (by weight) was calculated using the following equation.
Solubility (wt %)=Weight of residue (g)/{10.0 (g)+Weight of residue (g)}×100

C=CC(=O)OCCCS(=O)(=O)[O-].[K+] [SPA-K, potassium 3-acryloyloxypropylsulfonate]
Solubility with respect to cyclohexane:toluene=5:1 (by weight): < 1 wt %
